In the supplement of paper PMC10307832:

Tests used:
Experiment in all cases: relative viability (nuclei count vs DMSO), 5 days (fraction); higher = more cells survive
COR-L23 = test system: COR-L23
Summary of the method: (§1)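 For relative viability, nuclei counts in treated wells were divided by those in vehicle wells. Lung cancer cell lines had been pin-tool dosed in 1536-well plates the day after seeding and cultured for 5 days, then fixed and stained in one step (final 0.05% Triton X-100, 1% formaldehyde, 1 ug/ml Hoechst) and imaged at 4×. Doses were one drug alone or a fixed anchor-drug dose plus five library-drug doses (not always all listed) in √10 steps, and values are duplicate-plate medians.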

ChaGo-K-1 = test system: ChaGo-K-1
Summary of the method: as §1

EPLC-272H = test system: EPLC-272H
Summary of the method: as §1

HCC-15 = test system: HCC-15
Summary of the method: as §1

HCC-366 = test system: HCC-366
Summary of the method: as §1

HCC-44 = test system: HCC-44
Summary of the method: as §1

HCC-827 = test system: HCC-827
Summary of the method: as §1

LCLC-103H = test system: LCLC-103H
Summary of the method: as §1

NCI-H1355 = test system: NCI-H1355
Summary of the method: as §1

NCI-H1734 = test system: NCI-H1734
Summary of the method: as §1

NCI-H1793 = test system: NCI-H1793
Summary of the method: as §1

NCI-H1944 = test system: NCI-H1944
Summary of the method: as §1

NCI-H2009 = test system: NCI-H2009
Summary of the method: as §1

NCI-H2023 = test system: NCI-H2023
Summary of the method: as §1

NCI-H2085 = test system: NCI-H2085
Summary of the method: as §1

NCI-H2228 = test system: NCI-H2228
Summary of the method: as §1

NCI-H2347 = test system: NCI-H2347
Summary of the method: as §1

NCI-H2405 = test system: NCI-H2405
Summary of the method: as §1

NCI-H3122 = test system: NCI-H3122
Summary of the method: as §1

PC-14 = test system: PC-14
Summary of the method: as §1

SW 1573 = test system: SW 1573
Summary of the method: as §1

## CCNC(=O)c1noc(-c2cc(C(C)C)c(O)cc2O)c1-c1ccc(CN2CCOCC2)cc1 [Luminespib] + CC(=O)Nc1cccc(-n2c(=O)n(C3CC3)c(=O)c3c(Nc4ccc(I)cc4F)n(C)c(=O)c(C)c32)c1 [Trametinib] (partner 0.02 µM)
COR-L23; first compound 0.002 µM
  relative viability: 0.569
COR-L23; first compound 0.006325 µM
  relative viability: 0.462
COR-L23; first compound 0.02 µM
  relative viability: 0.223
COR-L23; first compound 0.06325 µM
  relative viability: 0.0665
COR-L23; first compound 0.2 µM
  relative viability: 0.0604
ChaGo-K-1; first compound 0.002 µM
  relative viability: 0.831
ChaGo-K-1; first compound 0.006325 µM
  relative viability: 0.873
ChaGo-K-1; first compound 0.02 µM
  relative viability: 0.884
ChaGo-K-1; first compound 0.06325 µM
  relative viability: 0.861
ChaGo-K-1; first compound 0.2 µM
  relative viability: 0.892
EPLC-272H; first compound 0.002 µM
  relative viability: 0.278
EPLC-272H; first compound 0.006325 µM
  relative viability: 0.309
EPLC-272H; first compound 0.02 µM
  relative viability: 0.212
EPLC-272H; first compound 0.06325 µM
  relative viability: 0.238
EPLC-272H; first compound 0.2 µM
  relative viability: 0.0855
HCC-15; first compound 0.002 µM
  relative viability: 0.394
HCC-15; first compound 0.006325 µM
  relative viability: 0.364
HCC-15; first compound 0.02 µM
  relative viability: 0.391
HCC-15; first compound 0.06325 µM
  relative viability: 0.258
HCC-15; first compound 0.2 µM
  relative viability: 0.13
HCC-366; first compound 0.002 µM
  relative viability: 0.354
HCC-366; first compound 0.006325 µM
  relative viability: 0.363
HCC-366; first compound 0.02 µM
  relative viability: 0.349
HCC-366; first compound 0.06325 µM
  relative viability: 0.026
HCC-366; first compound 0.2 µM
  relative viability: 0.0301
HCC-44; first compound 0.002 µM
  relative viability: 0.979
HCC-44; first compound 0.006325 µM
  relative viability: 1.19
HCC-44; first compound 0.02 µM
  relative viability: 1.24
HCC-44; first compound 0.06325 µM
  relative viability: 0.982
HCC-44; first compound 0.2 µM
  relative viability: 0.775
HCC-827; first compound 0.002 µM
  relative viability: 0.533
HCC-827; first compound 0.006325 µM
  relative viability: 0.506
HCC-827; first compound 0.02 µM
  relative viability: 0.279
HCC-827; first compound 0.06325 µM
  relative viability: 0.154
HCC-827; first compound 0.2 µM
  relative viability: 0.15
LCLC-103H; first compound 0.002 µM
  relative viability: 0.625
LCLC-103H; first compound 0.006325 µM
  relative viability: 0.657
LCLC-103H; first compound 0.02 µM
  relative viability: 0.699
LCLC-103H; first compound 0.06325 µM
  relative viability: 0.693
LCLC-103H; first compound 0.2 µM
  relative viability: 0.689
NCI-H1355; first compound 0.002 µM
  relative viability: 0.421
NCI-H1355; first compound 0.006325 µM
  relative viability: 0.445
NCI-H1355; first compound 0.02 µM
  relative viability: 0.265
NCI-H1355; first compound 0.06325 µM
  relative viability: 0.396
NCI-H1355; first compound 0.2 µM
  relative viability: 0.158
NCI-H1734; first compound 0.002 µM
  relative viability: 0.65
NCI-H1734; first compound 0.006325 µM
  relative viability: 0.586
NCI-H1734; first compound 0.02 µM
  relative viability: 0.579
NCI-H1734; first compound 0.06325 µM
  relative viability: 0.199
NCI-H1734; first compound 0.2 µM
  relative viability: 0.172
NCI-H1793; first compound 0.002 µM
  relative viability: 0.428
NCI-H1793; first compound 0.006325 µM
  relative viability: 0.333
NCI-H1793; first compound 0.02 µM
  relative viability: 0.357
NCI-H1793; first compound 0.06325 µM
  relative viability: 0.187
NCI-H1793; first compound 0.2 µM
  relative viability: 0.186
NCI-H1944; first compound 0.002 µM
  relative viability: 0.467
NCI-H1944; first compound 0.006325 µM
  relative viability: 0.4
NCI-H1944; first compound 0.02 µM
  relative viability: 0.387
NCI-H1944; first compound 0.06325 µM
  relative viability: 0.405
NCI-H1944; first compound 0.2 µM
  relative viability: 0.354
NCI-H2009; first compound 0.002 µM
  relative viability: 0.271
NCI-H2009; first compound 0.006325 µM
  relative viability: 0.225
NCI-H2009; first compound 0.02 µM
  relative viability: 0.169
NCI-H2009; first compound 0.06325 µM
  relative viability: 0.0625
NCI-H2009; first compound 0.2 µM
  relative viability: 0.0698
NCI-H2023; first compound 0.002 µM
  relative viability: 0.49
NCI-H2023; first compound 0.006325 µM
  relative viability: 0.56
NCI-H2023; first compound 0.02 µM
  relative viability: 0.39
NCI-H2023; first compound 0.06325 µM
  relative viability: 0.0742
NCI-H2023; first compound 0.2 µM
  relative viability: 0.0679
NCI-H2085; first compound 0.002 µM
  relative viability: 0.535
NCI-H2085; first compound 0.006325 µM
  relative viability: 0.507
NCI-H2085; first compound 0.02 µM
  relative viability: 0.33
NCI-H2085; first compound 0.06325 µM
  relative viability: 0.202
NCI-H2085; first compound 0.2 µM
  relative viability: 0.241
NCI-H2228; first compound 0.002 µM
  relative viability: 0.512
NCI-H2228; first compound 0.006325 µM
  relative viability: 0.336
NCI-H2228; first compound 0.02 µM
  relative viability: 0.133
NCI-H2228; first compound 0.06325 µM
  relative viability: 0.0941
NCI-H2228; first compound 0.2 µM
  relative viability: 0.106
NCI-H2347; first compound 0.002 µM
  relative viability: 0.29
NCI-H2347; first compound 0.006325 µM
  relative viability: 0.307
NCI-H2347; first compound 0.02 µM
  relative viability: 0.269
NCI-H2347; first compound 0.06325 µM
  relative viability: 0.254
NCI-H2347; first compound 0.2 µM
  relative viability: 0.294
NCI-H2405; first compound 0.002 µM
  relative viability: 0.669
NCI-H2405; first compound 0.02 µM
  relative viability: 0.515
NCI-H2405; first compound 0.06325 µM
  relative viability: 0.252
NCI-H2405; first compound 0.2 µM
  relative viability: 0.202
NCI-H3122; first compound 0.002 µM
  relative viability: 0.179
NCI-H3122; first compound 0.006325 µM
  relative viability: 0.27
NCI-H3122; first compound 0.02 µM
  relative viability: 0.141
NCI-H3122; first compound 0.06325 µM
  relative viability: 0.242
NCI-H3122; first compound 0.2 µM
  relative viability: 0.186
PC-14; first compound 0.002 µM
  relative viability: 0.738
PC-14; first compound 0.006325 µM
  relative viability: 0.652
PC-14; first compound 0.02 µM
  relative viability: 0.243
PC-14; first compound 0.06325 µM
  relative viability: 0.0663
PC-14; first compound 0.2 µM
  relative viability: 0.0601
SW 1573; first compound 0.002 µM
  relative viability: 0.604
SW 1573; first compound 0.006325 µM
  relative viability: 0.483
SW 1573; first compound 0.02 µM
  relative viability: 0.198
SW 1573; first compound 0.06325 µM
  relative viability: 0.105
SW 1573; first compound 0.2 µM
  relative viability: 0.096
